Data on 32 compounds can be found in patent US20080269237A1, “CARBAMIC ACID COMPOUNDS COMPRISING A PIPERAZINE LINKAGE AS HDAC INHIBITORS” (TOPOTARGET UK LIMITED, priority 2002, published 2008).

Counter-ions that a name gives are not always drawn.

The test system of one data set is HDAC (HeLa cell extract). Briefly: Primary assay: deacetylase activity, HeLa cell extract as source of HDAC. Type of data set: biochemical, human. To be noted: for IC50: read-out: HDAC Inhibition (IC50 unless otherwise specified) HeLa; for HDAC Inhibition HeLa, % @ 100 nM: 100 nM compound; for HDAC Inhibition HeLa, % @ 500 nM: 500 nM compound. As to the method: Decreased activity indicates increased inhibition by the test compound.
Alternatively, the activity of the compounds as HDAC inhibitors was determined using a commercially available fluorescent assay kit: (Fluor de Lys™, BioMol Research Labs, Inc., Plymouth Meeting, USA).
Extensive comparative studies have shown that Primary Assay (1) and Primary Assay (2), discussed above, yield equivalent results. Primary Assay results reported herein are (a) exclusively from (1); (b) exclusively from (2); or (c) from both (1) and (2).
The HeLa cell extract was made from HeLa cells (ATCC Ref. No. CCL-2) by freeze-thawing three times in 60 mM TrisCl pH 8.0, 450 mM NaCl, 30% glycerol. Two cell volumes of extraction buffer were used, and particulate material was centrifuged out (20800 g, 4° C., 10 min). The supernatant extract having deacetylase activity was aliquoted and frozen for storage.
% activity={(S^C−B)/(S^o−B)}×100

The test system of data set [1] is JURKAT (human T-cell line). Put plainly: Secondary assay: cell proliferation inhibition WST-1, Jurkat. Type of data set: cell-based. Conditions: 48 h, read-out: Cell Proliferation Inhibition WST-1 (IC50 unless otherwise specified) Jurkat. For orientation: Tetrazolium dyes change colour on reduction, which living cells bring about.

A word on the melting point: it is the temperature, or range, at which the solid turns liquid.

In turn, `O=C(/C=C/c1cccc(S(=O)(=O)N2CCN(c3ccccc3Cl)CC2)c1)NO` [PX118811, (E)-N-Hydroxy-3-{3-[(4-(2-chlorophenyl)-1-piperazinyl)sulfonyl]phenyl}-2-propenamide] gave a melting point of 183 °C. For the same compound, in the data set with HDAC (HeLa cell extract), the IC50 is 42 nM.
On the same counts, the results for `CN(C)c1ccc(C(=O)N2CCN(C(=O)CCCCCCC(=O)NO)CC2)cc1` [PX118832] are 90 to 92 °C and 212 nM.
Consider `COc1ccccc1N1CCN(S(=O)(=O)c2cccc(/C=C/C(=O)NO)c2)CC1` [PX118810, (E)-N-Hydroxy-3-{3-[(4-(2-methoxyphenyl)-1-piperazinyl)sulfonyl]phenyl}-2-propenamide], for which the melting point was determined as 190 °C. The IC50 in the data set with HDAC (HeLa cell extract) stood at 46 nM.
The compound `COc1cccc(N2CCN(C(=O)CCCCCCC(=O)NO)CC2)c1` [PX118847, 8-[4-(3-Methoxyphenyl)-piperazin-1-yl]-8-oxo octanoic acid hydroxyamide] had a melting point of 122 to 122.5 °C. Also, in the data set on HDAC (HeLa cell extract), the IC50 was 31 nM.
Taken in the same sequence, the figures for `COc1ccc(N2CCN(C(=O)CCCCCCC(=O)NO)CC2)cc1` [PX118846, 8-[4-(4-Methoxyphenyl)-piperazin-1-yl]-8-oxo octanoic acid hydroxyamide] were 149 to 150 °C and 3.4 nM.
`O=C(/C=C/c1cccc(S(=O)(=O)N2CCN(c3cccc(Cl)c3)CC2)c1)NO` [PX118812, (E)-N-Hydroxy-3-{3-[(4-(3-chlorophenyl)-1-piperazinyl)sulfonyl]phenyl}-2-propenamide]: the melting point turned out to be 201 °C. The IC50 with HDAC (HeLa cell extract) was found to be 26 nM.
`O=C(/C=C/c1cccc(S(=O)(=O)N2CCN(c3ccccn3)CC2)c1)NO` [PX118807, (E)-N-Hydroxy-3-{3-[(4-(2-pyridinyl)-1-piperazinyl)sulfonyl]phenyl}-2-propenamide]: in the data set on HDAC (HeLa cell extract), the “HDAC Inhibition HeLa, % @ 100 nM” value is reported as 60% @ 100 nM.
In the case of oxamflatin [reference compound], the IC50 in data set [1] came to 170 nM.
`O=C(CCCCCC(=O)N1CCN(c2ccccc2)CC1)NO` [PX117404, 7-Oxo-7-(4-phenyl-piperazin-1-yl)-heptanoic acid hydroxyamide] returned a melting point of 107 to 109 °C. In the data set with HDAC (HeLa cell extract), the “HDAC Inhibition HeLa, % @ 500 nM” value is 35% @ 500 nM.
`O=C(CCCCCCC(=O)N1CCN(C(=O)c2ccccc2)CC1)NO` [PX118831, 8-(4-Benzoyl-piperazin-1-yl)-8-oxo octanoic acid hydroxyamide] had a melting point of 100 to 101 °C. Further, in the data set on HDAC (HeLa cell extract), the IC50 stood at 194 nM.
`N#Cc1ccc(C(=O)N2CCN(C(=O)CCCCCCC(=O)NO)CC2)cc1` [PX118844, 8-[4-(4-Cyanobenzoyl)-piperazin-1-yl]-8-oxo octanoic acid hydroxyamide] returned a melting point of 150 to 150.5 °C. The IC50 in the data set on HDAC (HeLa cell extract) was found to be 286 nM.
On the same counts, the results for `O=C(CCCCCC(=O)N1CCN(c2ccccc2Cl)CC1)NO` [PX118793, 7-[4-(2-Chloro-phenyl)-piperazin-1-yl]-7-oxo heptanoic acid hydroxyamide] are 128 to 130 °C and 188 nM.
On to `O=C(CCCCCC(=O)N1CCN(c2cccc(Cl)c2)CC1)NO` [PX118794, 7-[4-(3-Chloro-phenyl)-piperazin-1-yl]-7-oxo heptanoic acid hydroxyamide], for which the melting point is 120 to 122 °C. The IC50 in the data set with HDAC (HeLa cell extract) is 74 nM.
The compound `O=C(CCCCCCC(=O)N1CCN(c2cccc(Cl)c2)CC1)NO` [PX118792, 8-[4-(3-Chloro-phenyl)-piperazin-1-yl]-8-oxo octanoic acid hydroxyamide] had a melting point of 122 to 124 °C. Moreover, the IC50 in the data set with HDAC (HeLa cell extract) amounted to 34 nM.
Compound `O=C(/C=C/c1cccc(S(=O)(=O)N2CCN(CCOc3ccc4ccccc4c3)CC2)c1)NO` [PX118935, (E)-N-Hydroxy-3-[3-({4-[2-(2-naphthyloxy)ethyl]-1-piperazinyl}-sulfonyl)phenyl]-2-propenamide] returned a melting point of 130 °C.
In turn, `CN(C)c1ccc(CC(=O)N2CCN(C(=O)CCCCCCC(=O)NO)CC2)cc1` [PX118848, 8-(4-{2-[4-(Dimethylamino)phenyl]acetyl}-1-piperazinyl)-N-hydroxy-8-oxooctanamide] yielded a melting point of 77 to 79 °C. In addition, in the data set on HDAC (HeLa cell extract), the “HDAC Inhibition HeLa, % @ 100 nM” value is 44% @ 100 nM.
Regarding `O=C(/C=C/c1cccc(S(=O)(=O)N2CCN(CCc3ccc4ccccc4c3)CC2)c1)NO` [PX118914, (E)-N-Hydroxy-3-[3-({4-[2-(2naphthyl)ethyl]-1-piperazinyl}sulfonyl)phenyl]-2-propenamide], the melting point is 184 °C.
In the case of `O=C(CCCCCC(=O)N1CCN(c2ccccn2)CC1)NO` (as salt: oxalate) [PX118845, 7-Oxo-7-(4-pyridin-2-yl-piperazin-1-yl]-heptanoic acid hydroxyamide oxalate], the melting point fell in the range of 118 to 122 °C.
Still for that read-out and setting: with `COc1cccc(N2CCN(S(=O)(=O)c3cccc(/C=C/C(=O)NO)c3)CC2)c1` [PX118872, (E)-N-hydroxy-3-(3-{[4(3-methoxyphenyl)piperazinyl]sulfonyl}phenyl)-2-propenamide] the figure was 196 °C.
`O=C(CCCCCCC(=O)N1CCN(c2ncccn2)CC1)NO` [PX118850, N-Hydroxy-8-oxo-8-[4-(2-pyrimidinyl)-1-piperazinyl]octanamide] gave a melting point of 132 to 133.5 °C. Further, the IC50 in the data set on HDAC (HeLa cell extract) came to 70 nM.
Compound `O=C(CCCCCCC(=O)N1CCN(c2ccccc2Cl)CC1)NO` [PX118791, 8-[4-(2-Chloro-phenyl)-piperazin-1-yl]-8-oxo octanoic acid hydroxyamide] showed a melting point of 131 to 132 °C. Further, the IC50 with HDAC (HeLa cell extract) is 36 nM.
For `O=C(CCCCCC(=O)N1CCN(c2ccc(F)cc2)CC1)NO` [PX118990, 7-[4-(4-Fluorophenyl)-1-piperazinyl]-N-hydroxy-7-oxoheptanamide], the melting point lay in the range of 119 to 120 °C.
Regarding `COc1cccc(N2CCN(S(=O)(=O)c3ccc(/C=C/C(=O)NO)cc3)CC2)c1` [PX118892, (E)-N-Hydroxy-3-(4-{[4-(3-methoxyphenyl)-1-piperazinyl]sulfonyl}phenyl)-2-propenamide], the melting point is 199 to 200 °C.
Compound `O=C(CCCCCC(=O)N1CCN(C(c2ccccc2)c2ccccc2)CC1)NO` [PX117403, 7-(4-Benzhydryl-piperazin-1-yl)-7-oxo-heptanoic acid hydroxyamide] showed a melting point of 157 to 159 °C. Besides, the “HDAC Inhibition HeLa, % @ 500 nM” value with HDAC (HeLa cell extract) is reported as 28% @ 500 nM.
Regarding `O=C(CCCCCCC(=O)N1CCN(c2ccc([N+](=O)[O-])cc2)CC1)NO` [PX118849, N-Hydroxy-8-[4-(4-nitrophenyl)-1-piperazinyl]-8-oxooctanamide], the melting point was 125 to 127 °C. In addition, the IC50 in the data set on HDAC (HeLa cell extract) came to 26 nM.
Regarding `O=C(CCCCCC(=O)N1CCN(c2ccc(Cl)cc2)CC1)NO` [PX118991, 7-[4-(4-Chlorophenyl)-1-piperazinyl]-N-hydroxy-7-oxoheptanamide], the melting point was 119 to 121 °C.
In turn, `O=C(/C=C/c1ccc(S(=O)(=O)N2CCN(c3cccc(C(F)(F)F)c3)CC2)cc1)NO` [PX118937, (E)-N-Hydroxy-3-[4-({4-[3-(trifluoromethyl)phenyl]-1-piperazinyl}-sulfonyl)phenyl]-2-propenamide] came in with a melting point of 178 to 179 °C.
With `O=C(CCCCCC(=O)N1CCN(c2ccc(Cl)c(Cl)c2)CC1)NO` [PX118989, 7-[4-(3,4-Dichlorophenyl)-1-piperazinyl]-N-hydroxy-7-oxoheptanamide], the melting point was in the range of 125 to 126 °C.
`O=C(/C=C/c1cccc(S(=O)(=O)N2CCN(c3ccc(Cl)cc3)CC2)c1)NO` [PX118972, (E)-3-(3-{[4-(4-Chlorophenyl)-1-piperazinyl]sulfonyl}phenyl)-N-hydroxy-2-propenamide] had a melting point of 215 °C.
Same read-out and setting: with `CN(C)c1ccc(CCN2CCN(S(=O)(=O)c3cccc(/C=C/C(=O)NO)c3)CC2)cc1` [PX118951, (E)-3-[3-({4-[4-(Dimethylamino)phenethyl]-1-piperazinyl}sulfonyl)phenyl]-N-hydroxy-2-propenamide] the figure was 189 °C.
As to `O=C(CCCCCCC(=O)N1CCN(C(=O)c2ccc3ccccc3c2)CC1)NO` [PX118830, 8-[4-(Naphthalene-2-carbonyl)-piperazin-1-yl]-8-oxo octanoic acid hydroxyamide], the melting point was in the range of 133.5 to 134.5 °C. The IC50 in the data set with HDAC (HeLa cell extract) was found to be 133 nM.
With `O=C(/C=C/c1cccc(S(=O)(=O)N2CCN(CCOc3cccc4ccccc34)CC2)c1)NO` [PX118934, (E)-N-Hydroxy-3-[3-({4-[2-(1-naphthyloxy)ethyl]-1-piperazinyl}-sulfonyl)phenyl]-2-propenamide], the melting point turned out to be 178 °C.
